Reference: patent publication US9611246B2, “Compositions, apparatus, systems, and methods for resolving electronic excited states” (HALLSTAR INNOVATIONS CORP., priority 2012, dated 2017)

Tests used:
Assay type in all cases: physicochemical
[1] = Luminescence experiments in ethanol (room temperature and 77 K matrix)
Method: Because Formula II(a)(1) contains a ketone functionality, intersystem crossing into the triplet state could be promoted after photoexcitation due to spin-orbit coupling. Stabilizer triplet states could generate singlet oxygen. Low-temperature luminescence experiments in a ethanol matrix at 77 K were performed in search for phosphorescence of potential triplet states.
The quenching mechanism of protoporphyrin IX singlet excited states and triplet states by the compound of Formulas I, II, and III may be further clarified. A simple energy transfer mechanism would depend on the singlet and triplet energies of compounds of Formula I and protoporphyrin IX. To get information on excited state energies of the stabilizer, luminescence experiments were performed. […] However, weak luminescence was observed of the compound of Formula I(a)(1) in a frozen ethanol matrix at 77 K. The luminescence with maximum at 575 nm (FIG. 7c) originates from the compound of Formula I(a)(1), because the luminescence excitation spectrum (FIG. 7b) matches well the absorption spectrum of the compound of Formula I(a)(1) (FIG. 5a). The luminescence lifetime could not be determined, because of the weak signal intensity. […] If the luminescence at 575 nm is the fluorescence, then the Stoke's shift is unusually large. Independent of the assignment of the luminescence to the fluorescence or phosphorescence, this excited state energy is higher than singlet and triplet energies of protoporphyrin IX and rules out a simple energy transfer quenching mechanism. Another possible quenching mechanism is electron transfer quenching which would depend on the redox potentials of the protoporphyrin and the two quencher compounds.

[2] = Stern-Volmer analysis of singlet oxygen suppression
Text: The singlet oxygen phosphorescence intensity in the absence of the compound of Formulas I(a)(1), II(a)(1), II(d)(1), II(e)(1), or a mixture of II(b)(1) and II(c)(1) (I0) divided by the singlet oxygen phosphorescence intensity in the presence of compounds of Formula I/II(I) was plotted against the Formula I/II concentration (FIG. 16). From the slope of these plots (Stern-Volmer constant) and the lifetime of the quenched excited state, the bimolecular quenching constant can be extracted. If the excited state, which is quenched by the compound of Formula I(a)(1) (which causes a reduction in singlet oxygen production) is the singlet excited state of protoporphyrin IX then, using the previously measured fluorescence lifetime in acetonitrile (if =12.7 ns) a quenching rate constant of 2.4×10^9 M^−1 s^−1 is estimated. […] The rate constant derived from singlet oxygen phosphorescence quenching (FIG. 16) is only half of the more directly derived rate constant from fluorescence quenching, which could be caused by the difference in solvents or by some contribution of protoporphyrin triplet quenching by the compound of Formula I(a)(1). […] This rate constant is 5 times higher than the directly measured rate constant by laser flash photolysis (6.1×10^6 M^−1 s^−1). […] It must be noted that protoporphyrin IX triplet lifetime of ˜1 μs in air saturated DMSO was only estimated based on the directly measured triplet lifetime in air saturated acetonitrile and considering the different oxygen concentration in DMSO compared to acetonitrile. If necessary, the protoporphyrin IX triplet lifetime in air saturated DMSO can easily be measured by laser flash photolysis. The complex reaction mechanism is summarized in Scheme 1 (FIG. 17).
The biomolecular quenching rate constants for singlet excited state (kq^S) and triplet excited state (kq^T) quenching of PPIX by stabilizers in acetonitrile solutions at room temperature is shown in Table 4, as well and the Stern-Volmer rate constants.
Stern-Volmer constants are in direct correlation with the singlet oxygen suppression efficiency. Table 4 (above) summarizes the Stern-Volmer constants and PPIX singlet and triplet state quenching rate constants. Three different ranges of Stern-Volmer constants were observed. […] For compounds I(a)(1), II(d)(1), and the mixture of II(b)(1) and II(c)(1), Stern-Volmer constants of about 30 M^−1 were observed. For these three stabilizers, high PPIX singlet quenching rate constants (about 5×10^9 M^−1 s^−1) but low triplet quenching rate constants (<10^9 M^−1 s^−1) were observed. Here, the singlet oxygen suppression is probably dominated by PPIX singlet excited state quenching by these stabilizers. […] Because of the very high PPIX triplet quenching rate constant by compound II(a)(1) (3.2×10^9 M^−1 s^−1), the singlet oxygen suppression is probably dominated by triplet quenching. […] These kinetic parameters may include the MePPIX triplet and singlet lifetimes in air saturated and oxygen free CDCl3 and the bimolecular quenching constant by oxygen.

[3] = Voltammetry, redox potential with respect to Ag/AgCl reference electrode; conditions: vs Ag/AgCl; for second redox couple, oxidation peak: the small peak where two are given
Text: For these experiments, dimethylsulfoxide (DMSO) and tetrabutylammonium perchlorate (TBAP) were obtained from Sigma Aldrich and used as received. […] Platinum wires (BASi MW-1032) of diameter 0.5 mm were employed for both the working electrode (WE) and counter electrode (CE). A dry-solvent tolerant Ag/AgCl reference electrode (RE) was obtained from eDAQ (Model ET072). The WE and CE were cleaned prior to each by first rinsing in acetone, then DI, followed by soaking in ˜50% aqueous H2SO4 for 10-20 minutes and then a final DI rinse. The RE electrode was cleaned prior to each use by an acetone rinse followed by DI rinse. Each sample solution was prepared in a fresh glass vial which had been rinsed with DI then acetone and allowed to dry Immediately after preparing each solution, it was purged with pure N2 gas for 15-20 minutes with the electrodes in place. Voltammetry data was collected shortly afterwards with an EG&G PAR 263 A Potentiostant/Galvanostat operated using a Labview-based control program. Scans were performed at various potential ranges between +2.0V and −2.0V (vs Ag/AgCl); all scan rates were constant at 200 mV/s.

[4] = Protoporphyrin IX triplet state quenching by laser flash photolysis; conditions: for Triplet Quenching Rate Constant: PPIX, acetonitrile solutions at room temperature
Method: To investigate if triplet states of protoporphyrin IX are quenched by the two compounds, laser flash photolysis experiments were performed. In these experiments, a deoxygenated acetonitrile solution of protoporphyrin IX is excited with short laser pulses from a Nd-YAG laser (355 nm, 5 ns pulse width). Difference absorption kinetic traces were recorded at different observation wavelengths (300 to 800 nm) and from these a transient absorption spectrum was constructed (FIG. 5A). […] In addition, two bands are observed at 320 and 440 nm, which are assigned to the triplet-triplet absorption of protoporphyrin IX. […] Triplet absorption kinetics at 440 nm may be utilized to obtain triplet quenching rate constants by the stabilizers. Triplet decay traces at 440 nm were recorded in the presence of different amounts of the alkoxy […], Formulas […])(1), and the mixture of II(b)(1) and II(c)(1). The decay traces were fitted to a first-order kinetics. The plot of these pseudo-first-order rate constants (inverse decay lifetime) vs. the concentration of the two compounds gives directly the bimolecular triplet quenching rate constant from the slope (FIG. 6). The biomolecular quenching rate constants for singlet excited state (kq^S) and triplet excited state (kq^T) quenching of PPIX by stabilizers in acetonitrile solutions at room temperature is shown in Table 4, as well and the Stern-Volmer rate constants.

[5] = Protoporphyrin IX fluorescence lifetime quenching (singlet excited state); conditions: for bimolecular quenching rate constant for singlet excited state quenching (in words) / Singlet Quenching Rate Constant: PPIX; for Singlet Quenching Rate Constant: acetonitrile solutions at room temperature
Method: Fluorescence lifetime measurements are a convenient way to measure singlet state quenching by stabilizers. Protoporphyrin IX decay traces were recorded in the absence and presence of compound I(a)(1) and alkoxy […] (FIG. 3). […] The collected data shown in FIG. 3 were used to determine the bimolecular quenching rate constant for singlet excited state quenching by the compounds. The quenching rate constant may be directly extracted from the slope of the plot of the inverse fluorescence lifetime vs. the concentration of the two compounds (FIG. 4). […] The biomolecular quenching rate constants for singlet excited state (kq^S) and triplet excited state (kq^T) quenching of PPIX by stabilizers in acetonitrile solutions at room temperature is shown in Table 4, as well and the Stern-Volmer rate constants.

[6] = 0.01 M in 0.1 M TBAP in DMSO, 200 mV/s

fluorescence at room temperature ([1]; ethanol solution) | first (or only) redox couple, oxidation peak [3, 6] | first (or only) redox couple, reduction peak [3, 6] | first (or only) redox couple, redox potential ([3]; estimated from the peaks) | SMILES | luminescence maximum ([1]; ethanol matrix at 77 K) | luminescence quantum yield ([1]; ethanol matrix at 77 K) | Stern-Volmer Constant of ^1O2 Suppression [2] | second redox couple, oxidation peak (large) [3] | second redox couple, reduction peak [3, 6] | second redox couple, redox potential ([3]; estimated from the peaks) | second redox couple, oxidation peak [3] | PPIX triplet quenching rate constant by laser flash photolysis [4] | Triplet Quenching Rate Constant [4] | PPIX triplet quenching (in words) ([4]; triplet decay at 440 nm) | bimolecular quenching rate constant for singlet excited state quenching (in words) ([5]; acetonitrile) | Singlet Quenching Rate Constant [5] | rate constant from Stern-Volmer plot, if suppression entirely caused by triplet quenching ([2]; considering triplet lifetime ~1 μs in air saturated DMSO) | quenching rate constant from Stern-Volmer constant, if singlet excited state is quenched ([2]; using fluorescence lifetime 12.7 ns) | rate constant of PPIX singlet quenching using fluorescence quenching ([5]; acetonitrile) | quenching of protoporphyrin IX fluorescence (fluorescence lifetime) ([5]; acetonitrile, alkoxy crylene even at 0.1 M)
 |  |  |  | COC(=O)C(C#N)=C1c2ccccc2C(=O)c2ccccc21 [Formula II(a)(1)] | 492 nm | less than 1% | 240 M⁻¹ | +430 mV | −1537 mV | −1501 mV | −1466 mV | 3.2e+09 M⁻¹ s⁻¹ | 3.2 10^9 M^−1s^−1 | most efficient quencher | high quenching rate constant | 5.2 10^9 M^−1s^−1 |  |  |  | 
did not give detectable fluorescence | −560 mV | −757 mV | −658 mV | COC(=O)C(C#N)=C1c2ccccc2-c2ccccc21 [Formula I(a)(1)] | 575 nm |  |  |  | −1297 mV | approximately −1199 mV | −1102 mV | 6.1e+06 M⁻¹ s⁻¹ | 0.0061 10^9 M^−1s^−1 |  | high quenching rate constant | 5.3 10^9 M^−1s^−1 | ~3e+07 M⁻¹ s⁻¹ | 2.4e+09 M⁻¹ s⁻¹ | 5.3e+09 M⁻¹ s⁻¹ | significantly quenches
